ChEMBL document CHEMBL4725456, “Therapeutic Potential of Autotaxin Inhibitors in Treatment of Interstitial Lung Diseases” (ACS Med Chem Lett, 2020)

Assay: In vivo inhibition of ATX in rat assessed as reduction in plasma LPA levels at 5 mg/kg, po measured after 8 hrs by LC-MS analysis relative to control
Assay type: functional

| Compound | inhibition in vivo at 5 mg/kg [%] |
| --- | --- |
| CC(=O)N1CCN(c2ccc(CNc3ccc(OCc4cccc(C#N)c4)nn3)cc2)CC1 | 95.7 |
| COc1ccc(COc2ccc(NCc3ccc(N4CCN(C(C)=O)CC4)cc3)nn2)cn1 | 98.3 |
